doi:10.64898/2025.12.18.695269, “Structural Basis of TACO1-Mediated Efficient Mitochondrial Translation” (bioRxiv, 2025)

Tests used:
TACO1 [1] = target: T1, TACO1 (Homo sapiens, UniProt Q9BSH4); assay: competition with BODIPY-FL-GTPγS fluorescence binding; settings: pre-incubation with GMPPNP before BODIPY-FL-GTPγS; competitive
T1 construct: recombinant TACO1

TACO1 [2] = target: T1, TACO1; assay: fluorescence increase of BODIPY-labelled nucleotide, saturation fit; format: binding; settings: labelled compound; 500 nM TACO1, 0-30 μM ligand, 10 min

Kd (TACO1 [2])	Compound	competition with BODIPY-FL-GTPγS fluorescence binding (TACO1 [1])
	Nc1nc2c(ncn2[C@@H]2O[C@H](COP(=O)(O)OP(=O)(O)NP(=O)(O)O)[C@@H](O)[C@H]2O)c(=O)[nH]1 [GMPPNP]	This effect was abolished by pre-incubation with the non-hydrolyzable GTP analog GMPPNP
25 µM	BODIPY-FL-GTPγS	
